Here are results for seven compounds from patent publication US7468384B2, “Microbicidal composition” (Rohm and Haas Company, priority 2004, dated 2008).

What all share (type): cell-based
Assay [1] deals with Pseudomonas aeruginosa (P. aeruginosa—ATCC #15442). The experiment in a line: Synergy test, microtiter plate high resolution MIC assay, bacterium. Details: key to SI (calculated synergy index) / SI (synergy index): SI = Qa/QA + Qb/QB (mixture vs. alone end-point concentrations). The note with it: for MIC: Pseudomonas aeruginosa, ATCC15442; for MIC / SI (synergy index) / Qb (second component at end point, MIC): 24 hours; for Qb: alone or mixed with BIT. The source says: (§1) One measure of synergism is the industrially accepted method described by Kull, F. C.; Eisman, P. C.; Sylwestrowicz, H. D. and Mayer, R. L., in Applied Microbiology 9:538-541 (1961), using the ratio determined by the formula: Qa/QA+Qb/QB=Synergy Index (“SI”) wherein: • QA=concentration of compound A (first component) in ppm, acting alone, which produced an end point (MIC of Compound A). • Qa=concentration of compound A in ppm, in the mixture, which produced an end point. • QB=concentration of compound B (second component) in ppm, acting alone, which produced an end point (MIC of Compound B). • Qb=concentration of compound B in ppm, in the mixture, which produced an end point.
(§2) When the sum of Qa/QA and Qb/QB is greater than one, antagonism is indicated. […] The lower the SI, the greater the synergy shown by that particular mixture. The minimum inhibitory concentration (MIC) of a microbicide is the lowest concentration tested under a specific set of conditions that prevents the growth of added microorganisms.
(§3) Synergy tests were conducted using standard microtiter plate assays with media designed for optimal growth of the test microorganism. Soybean Casein Digest Broth (Tryptic Soy Broth, TSB medium) or minimal salt medium supplemented with 0.2% glucose and 0.1% yeast extract (M9GY medium) was used for testing bacteria; Potato Dextrose Broth (PDB medium) was used for testing yeast and mold. In this method, a wide range of combinations of microbicides was tested by conducting high resolution MIC assays in the presence of various concentrations of MI. High resolution MICs were determined by adding varying amounts of microbicide to one column of a microtitre plate and doing subsequent ten-fold dilutions using an automated liquid handling system to obtain a series of endpoints ranging from 2 ppm to 10,000 ppm active ingredient.
(§4) For MI combinations, the synergy of the combinations of the present invention was determined against two bacteria, Escherichia coli (E. coli—ATCC #8739) or Pseudomonas aeruginosa (P. aeruginosa—ATCC #15442), a yeast, Candida albicans (C. albicans—ATCC 10231), and a mold, Aspergillus niger (A. niger—ATCC 16404). The bacteria were used at a concentration of about 5×10^6 bacteria per mL and the yeast and mold at 5×10^5 fungi per mL. These microorganisms are representative of natural contaminants in many consumer and industrial applications. […] (bacteria).
(§5) For BIT combinations, the synergy of the combinations of the present invention was determined against a bacterium, Pseudomonas aeruginosa (P. aeruginosa—ATCC #15442), a yeast, Candida albicans (C. albicans—ATCC 10231), and a mold, Aspergillus niger (A. niger—ATCC 16404). The bacteria were used at a concentration of about 5×10^6 bacteria per mL and the yeast and mold at 5×10^5 fungi per mL. These microorganisms are representative of natural contaminants in many consumer and industrial applications. […] (yeast and mold) or 30° C. (bacteria).

In assay [2] the test system is Candida albicans (C. albicans—ATCC 10231). The experiment in a line: Synergy test, microtiter plate high resolution MIC assay, yeast. The conditions noted are these: C. albicans 10231, PDB; for MIC: Candida albicans, ATCC10231; for Qb: alone or mixed with BIT.
Excerpt: as §1, §2, §3, §4, §5

The subject of a further assay is S. aureus 6538. Kind of assay: Synergy test, microtiter plate high resolution MIC assay, bacterium. The conditions noted are these: S. aureus 6538, TSB.
Excerpt: as §1, §2, §3

For assay [3], the system named is Escherichia coli (E. coli—ATCC #8739). Described as above. The note with it: E. coli 8739, M9GY; for Qb: alone or mixed with BIT.
Excerpt: as §1, §2
as §3, with “In this method, a wide range of combinations of microbicides was tested by conducting high resolution MIC assays in the presence of various concentrations of MI.” left out
as §4

The test system of assay [4] is Aspergillus niger (A. niger—ATCC 16404). Kind of assay: Synergy test, microtiter plate high resolution MIC assay, mold. Details: key to SI (calculated synergy index) / SI (synergy index): SI = Qa/QA + Qb/QB (mixture vs. alone end-point concentrations). The note with it: A. niger 16404, PDB; for MIC: Aspergillus niger, ATCC16404, 72 h.
Excerpt: as §1, §2, §3, §4, §5

The mark [5] stands for this setting: Table 25, sodium dehydroacetic acid with BIT, 24 hours, alone where Qa = 0.
[6] abbreviates: glutaraldehyde concentration giving end point (MIC), 24 hours.
Where [7] appears, read: synergy index BIT + glutaraldehyde, 24 hours.

Read-outs that look alike come from different tables or passages of the source.

Take `CCCCC(CC)CN1CN(CC(CC)CCCC)CC(C)(N)C1` (centres unmarked) [Hexetidine]: the MIC in assay [1] (P. aeruginosa 15442, TSB, read-out: MIC of component acting alone (QA / QB)) was 10000 µg/mL; in assay [2] (72 hours, read-out: MIC of component acting alone (QA / QB)), 2000 µg/mL; in the assay on S. aureus 6538 (Staphylococcus aureus, 48 hours, read-out: MIC of component acting alone (QA / QB)), 4 µg/mL.

On to `Cl/C=C\C[N+]12CN3CN(CN(C3)C1)C2.[Cl-]` [cis-1-(3-chloroallyl)-3,5,7-triaza-1-azoniaadamantane chloride], for which the MIC in assay [1] (Table 24, Cis-1-(3-chloroallyl)-3,5,7-triaza-1-azoniaadamantane chloride with BIT, P. aeruginosa 15442, M9GY, alone where Qa = 0, read-out: Qb (second component at end point, MIC)) is 400 µg/mL; in assay [3] (Escherichia coli, ATCC8739, Table 24, Cis-1-(3-chloroallyl)-3,5,7-triaza-1-azoniaadamantane chloride with BIT, 48 hours, alone where Qa = 0, read-out: Qb (second component at end point, MIC)) it was 400 µg/mL; in assay [2] (Table 24, Cis-1-(3-chloroallyl)-3,5,7-triaza-1-azoniaadamantane chloride with BIT, 24 hours, alone where Qa = 0, read-out: Qb (second component at end point, MIC)) it was 800 µg/mL; in assay [4] (Table 24, Cis-1-(3-chloroallyl)-3,5,7-triaza-1-azoniaadamantane chloride with BIT, 3 days, alone where Qa = 0, read-out: Qb (second component at end point, MIC)), 800 µg/mL. For the same compound, the “SI (synergy index)” value in assay [1] (Table 24, P. aeruginosa 15442, M9GY) is 1.00; in assay [3] (Table 24, 48 hours), 1.00; in assay [2] (Table 24, 24 hours), 1.00; in assay [4] (Table 24, 3 days), 1.00.

For the compound `O=C([O-])c1ccccc1.[Na+]` [sodium benzoate], the “SI (synergy index)” value in assay [1] (Table 26, P. aeruginosa 15442, M9GY) is reported as 1.00; in assay [3] (Table 26, 24 hours), 1.00; in assay [2] (Table 26, 48 hours), 1.00; in assay [4] (Table 26, 1 week), 1.00. Further, the “Qb (second component at end point, MIC)” value is reported as 10000 ppm in assay [1] (Table 26, sodium benzoate with BIT, P. aeruginosa 15442, M9GY, alone where Qa = 0); 10000 ppm in assay [3] (Table 26, sodium benzoate with BIT, 24 hours, alone where Qa = 0); 2000 ppm in assay [2] (Table 26, sodium benzoate with BIT, 48 hours, alone where Qa = 0); 6000 ppm in assay [4] (Table 26, sodium benzoate with BIT, 1 week, alone where Qa = 0).

With `N=C(N)c1ccc(OCCCCCCOc2ccc(C(=N)N)cc2)cc1.O=S(=O)(O)CCO.O=S(=O)(O)CCO` [Hexamidine diisethionate], the “MIC of component acting alone (QA / QB)” value is given as 2000 ppm in assay [1] (P. aeruginosa 15442, TSB, 72 hours); 2000 ppm in assay [2] (48 hours); 4000 ppm in the assay on S. aureus 6538 (72 hours).

With `O=C(NCO)N(CO)C1(CO)C(=O)NC(=O)N1CO` (centres unmarked) [Diazolidinyl urea], the Qb in assay [1] (diazolidinyl urea concentration giving end point (MIC), P. aeruginosa 15442, M9GY, 48 hours) was 80 ppm; in assay [3] (diazolidinyl urea concentration giving end point (MIC), 48 hours), 100 ppm; in assay [2] (diazolidinyl urea concentration giving end point (MIC), 24 hours), 2000 ppm. Further, the SI in assay [1] (synergy index BIT + diazolidinyl urea, P. aeruginosa 15442, M9GY, 48 hours) is reported as 1.00; in assay [3] (synergy index BIT + diazolidinyl urea, 48 hours), 1.00; in assay [2] (synergy index BIT + diazolidinyl urea, 24 hours), 1.00; in assay [4] (synergy index BIT + diazolidinyl urea, 3 days), 1.00. In addition, the MIC in assay [4] (diazolidinyl urea concentration giving end point (MIC), alone or mixed with BIT, 3 days, read-out: Qb) is 1000 µg/mL.

Turning to `CC(=O)c1c([O-])cc(C)oc1=O.[Na+]` [Sodium dehydroacetic acid], the “MIC of component acting alone (QA / QB)” value is given as 10000 ppm in assay [1] (P. aeruginosa 15442, M9GY, 48 hours); 10000 ppm in assay [3] (24 hours); 40 ppm in assay [2] (24 hours); 80 ppm in assay [4] (4 days). The “SI (synergy index)” value is listed as 1.00 in assay [1] (Table 25, P. aeruginosa 15442, M9GY); 1.00 in assay [3] (Table 25, 24 hours); 1.00 in assay [2] (Table 25, 24 hours); 1.00 in assay [4] (Table 25, 1 week). Also, the “Qb (second component at end point, MIC)” value is listed as 10000 ppm in assay [1] (Table 25, sodium dehydroacetic acid with BIT, P. aeruginosa 15442, M9GY, alone where Qa = 0); 10000 ppm in assay [3] (setting [5]); 30 ppm in assay [2] (setting [5]); 200 ppm in assay [4] (Table 25, sodium dehydroacetic acid with BIT, 1 week, alone where Qa = 0).

For `O=CCCCC=O` [glutaraldehyde], the Qb is recorded as 60 ppm in assay [1] (glutaraldehyde concentration giving end point (MIC), P. aeruginosa 15442, M9GY, 48 hours); 50 ppm in assay [3] (setting [6]); 30 ppm in assay [2] (setting [6]). Further, the SI in assay [1] (synergy index BIT + glutaraldehyde, P. aeruginosa 15442, M9GY, 48 hours) was 1.00; in assay [3] (setting [7]), 1.00; in assay [2] (setting [7]) it was 1.00; in assay [4] (synergy index BIT + glutaraldehyde, 3 days) it was 1.00. For the same compound, the MIC in assay [4] (glutaraldehyde concentration giving end point (MIC), alone or mixed with BIT, 3 days, read-out: Qb) is 400 µg/mL.
